Assay results from patent US20240190890A1, “MK2 INHIBITORS AND USES THEREOF” (Bristol-Myers Squibb Company, priority 2022, published 2024).

Molecular target: p38a activated, mitogen-activated protein kinase-activated protein kinase 2 (MAPKAP-K2 or MK2) enzyme (Homo sapiens (Human), UniProt P49137)
Assay: MK2 Omnia continuous-read kinase assay for compound potency
Format: biochemical
Settings: [MK-2]=0.4 nM, [ATP]=10 μM, [ST3-Sox]=10 μM; room temperature
Method in brief: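 p38a-activated MK2 (0.4 nM) with 10 μM ATP (apparent Km) and 10 μM S/T3-Sox peptide in Tris pH 7.5 buffer with MgCl2, EGTA and DTT. Fluorescence (ex360/em485) read continuously for 120 min at room temperature. IC50 from initial linear slopes; apparent kinact/KI from kobs of exponential progress-curve fits.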

Sequence of p38a activated, mitogen-activated protein kinase-activated protein kinase 2 (MAPKAP-K2 or MK2) enzyme (P49137 whole entry): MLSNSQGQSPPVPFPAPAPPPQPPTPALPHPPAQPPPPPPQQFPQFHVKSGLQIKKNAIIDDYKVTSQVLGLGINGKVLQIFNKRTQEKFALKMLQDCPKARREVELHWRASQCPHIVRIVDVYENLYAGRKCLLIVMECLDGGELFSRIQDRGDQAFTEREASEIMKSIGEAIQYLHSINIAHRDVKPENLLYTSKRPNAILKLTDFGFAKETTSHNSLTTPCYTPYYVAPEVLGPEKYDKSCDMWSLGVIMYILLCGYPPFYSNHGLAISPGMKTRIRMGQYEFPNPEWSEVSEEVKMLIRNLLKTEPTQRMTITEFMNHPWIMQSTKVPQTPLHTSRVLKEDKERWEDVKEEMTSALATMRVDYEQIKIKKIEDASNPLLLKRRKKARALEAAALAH

| Structure (SMILES) | IC50 |
| --- | --- |
| C=Cc1nc(-c2ccc3c(ccc4sc5c(c43)NC[C@@H](C)NC5=O)n2)cnc1C [Example I-166, (R)-10-methyl-3-(5-methyl-6-vinylpyrazin-2-yl)-9,10,11,12-tetrahydro-8H-[1,4]diazepino[5′,6′:4,5]thieno[3,2-f]quinolin-8-one] | 181 nM |
| C[C@@H]1CNc2c(sc3ccc4nc(-c5cc(Cl)nc(COC6CCOCC6)n5)ccc4c23)C(=O)N1 [Example I-23, (R)-3-(6-chloro-2-(((tetrahydro-2H-pyran-4-yl)oxy)methyl)pyrimidin-4-yl)-10-methyl-9,10,11,12-tetrahydro-8H-[1,4]diazepino[5′,6′:4,5]thieno[3,2-f]quinolin-8-one] | 487 nM |
| C=Cc1cc(-c2ccc3c(ccc4sc5c(c43)NC[C@@H](C)NC5=O)n2)c(CN2C[C@@H](C)O[C@@H](C)C2)cn1 [Example I-213, (R)-3-(5-(((2S,6R)-2,6-dimethylmorpholino)methyl)-2-vinylpyridin-4-yl)-10-methyl-9,10,11,12-tetrahydro-8H-[1,4]diazepino[5′,6′:4,5]thieno[3,2-f]quinolin-8-one] | 103 nM |
| C=Cc1ccn(-c2ccc3c(ccc4sc5c(c43)NC[C@@H](C)NC5=O)n2)n1 [Example I-147, (R)-10-methyl-3-(3-vinyl-1H-pyrazol-1-yl)-9,10,11,12-tetrahydro-8H-[1,4]diazepino[5′,6′:4,5]thieno[3,2-f]quinolin-8-one] | 104 nM |
| C/C=C/c1ncc(F)c(-c2ccc3c(ccc4sc5c(c43)NC[C@@H](C)NC5=O)n2)n1 [Example I-45, (R,E)-3-(5-fluoro-2-(prop-1-en-1-yl)pyrimidin-4-yl)-10-methyl-9,10,11,12-tetrahydro-8H-[1,4]diazepino[5′,6′:4,5]thieno[3,2-f]quinolin-8-one] | 160 nM |
| C#Cc1cc(-c2ccc3c(ccc4sc5c(c43)NC[C@@H](C)NC5=O)n2)c(NC)nn1 [Example I-104, (R)-3-(6-ethynyl-3-(methylamino)pyridazin-4-yl)-10-methyl-9,10,11,12-tetrahydro-8H-[1,4]diazepino[5′,6′:4,5]thieno[3,2-f]quinolin-8-one] | 194 nM |
| C[C@@H]1CNc2c(sc3ccc4nc(-c5cc(C#CC(C)(C)N)nc(Cl)n5)ccc4c23)C(=O)N1 [Example I-63, (R)-3-(6-(3-amino-3-methylbut-1-yn-1-yl)-2-chloropyrimidin-4-yl)-10-methyl-9,10,11,12-tetrahydro-8H-[1,4]diazepino[5′,6′:4,5]thieno[3,2-f]quinolin-8-one] | 145 nM |
| C[C@@H]1CNc2c(sc3ccc4nc(-c5nc(Cl)ncc5COC5CCOCC5)ccc4c23)C(=O)N1 [Example I-24, (R)-3-(2-chloro-5-(((tetrahydro-2H-pyran-4-yl)oxy)methyl)pyrimidin-4-yl)-10-methyl-9,10,11,12-tetrahydro-8H-[1,4]diazepino[5′,6′:4,5]thieno[3,2-f]quinolin-8-one] | 98 nM |
| C=Cc1cc(-c2ccc3c(ccc4sc5c(c43)NC[C@@H](C)NC5=O)n2)c(N(C)C)nn1 [Example I-129, (R)-3-(3-(dimethylamino)-6-vinylpyridazin-4-yl)-10-methyl-9,10,11,12-tetrahydro-8H-[1,4]diazepino[5′,6′:4,5]thieno[3,2-f]quinolin-8-one] | 106 nM |
| C=Cc1ncc(OC)c(-c2ccc3c(ccc4sc5c(c43)NC[C@@H](C)NC5=O)n2)n1 [Example I-32, (R)-3-(5-methoxy-2-vinylpyrimidin-4-yl)-10-methyl-9,10,11,12-tetrahydro-8H-[1,4]diazepino[5′,6′:4,5]thieno[3,2-f]quinolin-8-one] | 245 nM |
| [2H]C([2H])([2H])C(O)(c1cnc(C=C)cc1-c1ccc2c(ccc3sc4c(c32)NC[C@@H](C)NC4=O)n1)C([2H])([2H])[2H] [Example I-258, (R)-3-(5-(2-hydroxypropan-2-yl-1,1,1,3,3,3-d6)-2-vinylpyridin-4-yl)-10-methyl-9,10,11,12-tetrahydro-8H-[1,4]diazepino[5′,6′:4,5]thieno[3,2-f]quinolin-8-one] | 1000 nM |
| C=Cc1cc(-c2ccc3c(ccc4sc5c(c43)NC[C@@H](C)NC5=O)n2)c(OC(F)F)cn1 [Example I-247, (R)-3-(5-(difluoromethoxy)-2-vinylpyridin-4-yl)-10-methyl-9,10,11,12-tetrahydro-8H-[1,4]diazepino[5′,6′:4,5]thieno[3,2-f]quinolin-8-one] | 360 nM |
| C=Cc1nccc(-c2ccc3c(ccc4sc5c(c43)NC[C@@H](C)NC5=O)n2)c1F [Example I-217, (R)-3-(3-fluoro-2-vinylpyridin-4-yl)-10-methyl-9,10,11,12-tetrahydro-8H-[1,4]diazepino[5′,6′:4,5]thieno[3,2-f]quinolin-8-one] | 78 nM |
| C#Cc1cc(-c2ccc3c(ccc4sc5c(c43)NC[C@@H](C)NC5=O)n2)cc(N2CCC(F)(F)CC2)n1 [Example I-182, (R)-3-(2-(4,4-difluoropiperidin-1-yl)-6-ethynylpyridin-4-yl)-10-methyl-9,10,11,12-tetrahydro-8H-[1,4]diazepino[5′,6′:4,5]thieno[3,2-f]quinolin-8-one] | 1000 nM |
| C#Cc1cc(-c2ccc3c(ccc4sc5c(c43)NC[C@@H](C)NC5=O)n2)cc(CN2CCC(F)(F)CC2)n1 [Example I-124, (R)-3-(2-((4,4-difluoropiperidin-1-yl)methyl)-6-ethynylpyridin-4-yl)-10-methyl-9,10,11,12-tetrahydro-8H-[1,4]diazepino[5′,6′:4,5]thieno[3,2-f]quinolin-8-one] | 125 nM |
| CC#Cc1ncc(F)c(-c2ccc3c(ccc4sc5c(c43)NC[C@@H](C)NC5=O)n2)n1 [Example I-44, (R)-3-(5-fluoro-2-(prop-1-yn-1-yl)pyrimidin-4-yl)-10-methyl-9,10,11,12-tetrahydro-8H-[1,4]diazepino[5′,6′:4,5]thieno[3,2-f]quinolin-8-one] | 1000 nM |
| C#Cc1ncc(OC)c(-c2ccc3c(ccc4sc5c(c43)NC[C@@H](C)NC5=O)n2)n1 [Example I-42, (R)-3-(2-ethynyl-5-methoxypyrimidin-4-yl)-10-methyl-9,10,11,12-tetrahydro-8H-[1,4]diazepino[5′,6′:4,5]thieno[3,2-f]quinolin-8-one] | 233 nM |
| [2H]C([2H])([2H])N1CCN(c2cc(-c3ccc4c(ccc5sc6c(c54)NC[C@@H](C)NC6=O)n3)cc(C#C)n2)CC1 [Example I-172, (R)-3-(2-ethynyl-6-(4-(methyl-d3)piperazin-1-yl)pyridin-4-yl)-10-methyl-9,10,11,12-tetrahydro-8H-[1,4]diazepino[5′,6′:4,5]thieno[3,2-f]quinolin-8-one] | 97 nM |
| C=Cc1nc(C2CC2)n(-c2ccc3c(ccc4sc5c(c43)NC[C@@H](C)NC5=O)n2)n1 [Example I-248, (R)-3-(5-cyclopropyl-3-vinyl-1H-1,2,4-triazol-1-yl)-10-methyl-9,10,11,12-tetrahydro-8H-[1,4]diazepino[5′,6′:4,5]thieno[3,2-f]quinolin-8-one] | 303 nM |

The next molecules have a lower IC50 than those just listed; values first:

| IC50 | Structure (SMILES) |
| --- | --- |
| 38 nM | C#Cc1cc(-c2ccc3c(ccc4sc5c(c43)NC[C@@H](C)NC5=O)n2)nc(C#CC(C)(C)N)n1 [Example I-67, (R)-3-(2-(3-amino-3-methylbut-1-yn-1-yl)-6-ethynylpyrimidin-4-yl)-10-methyl-9,10,11,12-tetrahydro-8H-[1,4]diazepino[5′,6′:4,5]thieno[3,2-f]quinolin-8-one] |
| 25 nM | C#Cc1nccc(-c2ccc3c(ccc4sc5c(c43)NC[C@@H](C)NC5=O)n2)n1 [Example I-40, (R)-3-(2-ethynylpyrimidin-4-yl)-10-methyl-9,10,11,12-tetrahydro-8H-[1,4]diazepino[5′,6′:4,5]thieno[3,2-f]quinolin-8-one] |
| 16 nM | C[C@@H]1CNc2c(sc3ccc4nc(-n5ccnc5C#N)ccc4c23)C(=O)N1 [Example I-246, (R)-1-(10-methyl-8-oxo-9,10,11,12-tetrahydro-8H-[1,4]diazepino[5′,6′:4,5]thieno[3,2-f]quinolin-3-yl)-1H-imidazole-2-carbonitrile] |
| 5 nM | C=Cc1cc(-c2ccc3c(ccc4sc5c(c43)NC[C@@H](C)NC5=O)n2)c(C)c(CN2CCOCC2)n1 [Example I-197, (R)-10-methyl-3-(3-methyl-2-(morpholinomethyl)-6-vinylpyridin-4-yl)-9,10,11,12-tetrahydro-8H-[1,4]diazepino[5′,6′:4,5]thieno[3,2-f]quinolin-8-one] |
| 9 nM | C=Cc1cc(-c2ccc3c(ccc4sc5c(c43)NC[C@@H](C)NC5=O)n2)nc(C#CC(C)(C)N)n1 [Example I-66, (R)-3-(2-(3-amino-3-methylbut-1-yn-1-yl)-6-vinylpyrimidin-4-yl)-10-methyl-9,10,11,12-tetrahydro-8H-[1,4]diazepino[5′,6′:4,5]thieno[3,2-f]quinolin-8-one] |
| 74 nM | C=Cc1cc(-c2ccc3c(ccc4sc5c(c43)NC[C@@H](C)NC5=O)n2)c(OC(F)(F)F)cn1 [Example I-245, (R)-10-methyl-3-(5-(trifluoromethoxy)-2-vinylpyridin-4-yl)-9,10,11,12-tetrahydro-8H-[1,4]diazepino[5′,6′:4,5]thieno[3,2-f]quinolin-8-one] |
| 7 nM | C=Cc1nc(C(F)(F)F)nn1-c1ccc2c(ccc3sc4c(c32)NC[C@@H](C)NC4=O)n1 [Example I-226, (R)-10-methyl-3-(3-(trifluoromethyl)-5-vinyl-1H-1,2,4-triazol-1-yl)-9,10,11,12-tetrahydro-8H-[1,4]diazepino[5′,6′:4,5]thieno[3,2-f]quinolin-8-one] |
| 64 nM | C=Cc1cc(-c2ccc3c(ccc4sc5c(c43)NC[C@@H](C)NC5=O)n2)c(F)cn1 [Example I-70, (R)-3-(5-fluoro-2-vinylpyridin-4-yl)-10-methyl-9,10,11,12-tetrahydro-8H-[1,4]diazepino[5′,6′:4,5]thieno[3,2-f]quinolin-8-one] |
